According to patent US11130759B1, “2-oxoquinazoline derivatives as methionine adenosyltransferase 2A inhibitors” (IDEAYA BIOSCIENCES, INC., priority 2018, dated 2021):

Biological target: Human MAT2A (Homo sapiens (Human), UniProt P31153)
Assay: Phosphate Sensor Fluorescence Assay (MAT2A enzyme inhibition)
Assay type: biochemical
Details: L-methionine 500 uM, ATP 500 uM
Procedure: The ability of the compound of present disclosure to inhibit MAT2A enzyme was determined using the Malachite Green or Phosphate Sensor Fluorescence Assay described below.
B. Phosphate Sensor Fluorescence Assay
MAT2A enzyme is incubated with a test compound in DMSO or DMSO and its substrates (L-methionine and ATP) in a microtiter plate. The enzymatic reaction is stopped by the addition of Working Phosphate Sensor Mixture. The plate is analyzed for fluorescence at 450 nm.
Assay Buffer: 50 mM Tris, pH 7.5/50 mM KCl/10 mM MgCl2/0.01% Brij-35/1 mM DTT/0.1% BGG/40 nM PNP/6 uM 7-MEG
L-methionine: 500 uM before the addition of Working Phosphate Sensor Mixture
ATP: 500 uM before the addition of Working Phosphate Sensor Mixture
Test compounds or DMSO were added to the appropriate well suing D300e digital dispenser. 5 μl/well of Assay Buffer was added to the wells corresponding to the negative control and 5 μl/well of MAT2A was added to all the wells except for those corresponding to the negative control. After incubating the plate at room temperature for 15 minutes, 5 μl/well of the 1 mM L-methionine/1 mM ATP mixture was added to all wells. The plate was centrifuged at 1000 rpm for 1 minute and then incubated at room temperature for 1 hour. 5 μl of the Working Phosphate Sensor Mixture was added to all wells and the plate was centrifuged at 1000 rpm for 1 minute. The plate was read for fluorescence at 450 nm after exciting at 430 nm.
Percent inhibition was calculated in Chemical and Biological Information System (CBIS), (ChemInnovation Software Inc.). Curves were fitted by CBIS as % inhibition vs. log [compound concentration] using a 4-parameter inhibition model. Fit=(A+((B−A)/(1+((C/x)^D)))) Res=(y−fit)

Chain of Human MAT2A (P31153 whole entry): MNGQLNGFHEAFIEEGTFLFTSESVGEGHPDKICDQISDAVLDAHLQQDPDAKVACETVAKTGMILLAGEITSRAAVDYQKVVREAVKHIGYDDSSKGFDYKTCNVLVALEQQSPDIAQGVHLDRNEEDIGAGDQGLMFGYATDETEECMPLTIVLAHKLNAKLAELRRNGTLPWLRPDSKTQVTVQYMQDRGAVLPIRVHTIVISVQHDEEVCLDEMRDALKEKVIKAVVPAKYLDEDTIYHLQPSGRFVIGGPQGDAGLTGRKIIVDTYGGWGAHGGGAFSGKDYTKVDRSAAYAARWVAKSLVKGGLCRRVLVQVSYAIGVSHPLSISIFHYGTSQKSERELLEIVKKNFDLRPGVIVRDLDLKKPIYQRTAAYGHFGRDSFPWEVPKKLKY

IC50 (numeric bound)	IC50 (class symbols)	Compound
> 10000 nM		8-chloro-1-(2-chlorophenyl)-7- (trifluoro-methyl)pyrido[2,3- d]pyrimidine-2,4(1H,3H)-dione-1 [Example 360]
	< 200 nM	CCCc1ccc2c(N(C)C)nc(=O)n(-c3ccccc3)c2c1 [compound 98]
	< 200 nM	O=c1nc(N2CC[C@@H](O)C2)c2ccc(Cl)cc2n1-c1ccccc1O [compound 152]
